Laboratory results as given in patent US20240173332A1, “BENZO[…] TREATING OR PREVENTING RESPIRATORY SYNCYTIAL VIRUS INFECTION” (Pfizer Inc., priority 2021, published 2024).
Counter-ions that a name gives are not always drawn. Like-named read-outs stand apart in the source and are kept apart here.

How the values were obtained:
RSV A2 = test: RSV plaque reduction assay in Hep-G2 cells; format: cell-based, respiratory syncytial virus (RSV); settings: Hep-G2 cells, RSV A2, 2 days, mean of at least two experiments, read-out: RSV A2 Plaque EC50
Method: Compounds were subjected to RSV plaque reduction assays according to the following protocol. Plaque EC50 and cell toxicity CC50 values are a mean of at least two experiments and figures are rounded to whole units.
Hep-G2 cells (ECACC, 85011430) were passaged in flasks and seeded in 24-well plates in DMEM containing antibiotics and supplemented with 10% FBS. During inoculation and subsequent incubation, cells were cultured in DMEM containing 2% FBS. 100 plaque forming unit/well of RSV (RSV A2 ECACC, 0709161v) was mixed with eight serial dilutions of compound. Subsequently, 100 μL of the virus/compound mixtures was added to confluent Hep-G2 cell monolayers. The cells and virus/compound mixtures were incubated at 37° C. in a humidified 5% CO2 incubator for 2 h prior to removal of the inoculum and addition of 1 mL of overlay (DMEM containing 2% FBS and 0.8% CMC) containing compound dilutions. The cells and were incubated at 37° C. in a humidified 5% CO2 incubator for 2 days.
Cells were washed with PBS before adding 75/25% v/v EtOH/MeOH, for 3 min. Fixative was removed and plates were washed with PBS. A pre-titrated amount of the primary antibody was added in 200 μL PBS/2% milk powder, and plates incubated for 90 min at 37° C. The plates were washed 3 times with PBS/0.05% Tween20 before addition of rabbit anti-goat horse radish peroxidase in 200 μL PBS/2% milk powder, and incubated for 1 h at 37° C. Following three wash steps with PBS/0.05% Tween20, 200 μL ready-to-use TrueBlue was added and plates were incubated at rt for 10-15 min before washing with water. After removal of water, plates were air-dried in the dark. Plates were scanned and analysed using the Immunospot S6 Macro analyser, which is equipped with BioSpot analysis software for counting immunostained plaques (virospots). Plaque counts were used to calculate % infection relative to the mean of the plaque count in the virus control wells for RSV. The EC50 value was calculated as 50% reduction in signal, respectively, by interpolation of inhibition curves fitted with a 4-parameter nonlinear regression with a variable slope in Dotmatics. Plaque EC50 and cell toxicity CC50 values are a mean of at least two experiments and figures are rounded to whole units.

Hep-G2 cells = test: Cell cytotoxicity CC50; format: cell-based; settings: mean of at least two experiments unless (n = 1)
[1] = Liver microsomal stability, rat; format: in vitro ADME; settings: 1 μM compound, NADPH; for half-life at 1 μM: pooled liver microsomes, pH 7.4, 0.5 mg/mL protein, read-out: Liver Microsomal Stability t1/2
Method: (§1) Compounds were subjected to the following assays to investigate liver microsomal stability and hepatocyte stability.
(§2) Pooled liver microsomes were purchased from a reputable commercial supplier and stored at −80° C. prior to use. Microsomes (final protein concentration 0.5 mg/mL), 0.1 M phosphate buffer pH 7.4 and test compound (final substrate concentration 1 μM; final DMSO concentration 0.25%) were pre-incubated at 37° C. prior to the addition of NADPH (final concentration 1 mM) to initiate the reaction. The final incubation volume was 50 μL. A control incubation was included for each compound tested where 0.1 M phosphate buffer pH 7.4 was added instead of NADPH (minus NADPH). Two control compounds were included with each species. All incubations were performed singularly for each test compound. Each compound was incubated for 0, 5, 15, 30 and 45 min. The control (minus NADPH) was incubated for 45 min only. The reactions were stopped by transferring incubate into acetonitrile at the appropriate time points, in a 1:3 ratio. The termination plates are centrifuged at 3,000 rpm for 20 min at 4° C. to precipitate the protein. Following protein precipitation, the sample supernatants were combined in cassettes of up to 4 compounds, internal standard added, and samples analysed by LC-MS/MS. From a plot of In peak area ratio (compound peak area/internal standard peak area) against time, the gradient of the line was determined. Subsequently, half-life (t1/2) and intrinsic clearance (CLint) were calculated.

[2] = Liver microsomal stability, dog; format: in vitro ADME; settings: 1 μM compound, NADPH; for half-life at 1 μM: pooled liver microsomes, pH 7.4, 0.5 mg/mL protein, read-out: Liver Microsomal Stability t1/2
Method: as §1, §2

[3] = Liver microsomal stability, human; format: in vitro ADME; settings: 1 μM compound, NADPH; for half-life at 1 μM: pooled liver microsomes, pH 7.4, 0.5 mg/mL protein, read-out: Liver Microsomal Stability t1/2
Method: as §1, §2

Cell cytotoxicity CC50 = format: cell-based; settings: human, Hep-G2 cells; mean of at least two experiments unless (n = 1)
[4] = human respiratory syncytial virus, HepG2, 48 h

Row | Compound | EC50 (RSV A2) [nM] | CC50 (Hep-G2 cells) [nM] | EC50 (RSV A2; [4]) [nM] | CC50 (Cell cytotoxicity CC50) [nM] | half-life at 1 μM [1] [h] | half-life at 1 μM [2] [h] | half-life at 1 μM [3] [h] | other results
1 | 2-[2-Fluoro-4-(hydroxymethyl)phenyl]-N-[(3S)-2-oxo-5-phenyl-1,3-dihydro-1,4-benzodiazepin-3-yl]pyrazolo[1,5-a]pyrimidine-3-carboxamide [Example 2] | 40 | > 25000 | – | – | – | – | – | Liver Microsomal Stability t1/2 ([1]; rat liver microsomes, 0.5 mg/mL protein): 0.957 h; Liver Microsomal Stability t1/2 ([2]; dog liver microsomes, 0.5 mg/mL protein): 0.887 h; Liver Microsomal Stability t1/2 ([3]; human liver microsomes, 0.5 mg/mL protein): 1.95 h
2 | CC(O)c1ccc(-c2nn3cccnc3c2C(=O)N[C@H]2N=C(c3ccccc3)c3ccccc3NC2=O)c(F)c1 (single isomer, unassigned) [Example 16-2, 2-[2-Fluoro-4-[(1R*)-1-hydroxyethyl]phenyl]-N-[(3S)-2-oxo-5-phenyl-1,3-dihydro-1,4-benzodiazepin-3-yl]pyrazolo[1,5-a]pyrimidine-3-carboxamide] | 11 | > 2500 | – | – | – | – | – | –
3 | CC(O)c1ccc(-c2nn3cccnc3c2C(=O)N[C@H]2N=C(c3ccccc3)c3cccc(F)c3NC2=O)c(F)c1 (single isomer, unassigned) [Example 17-2, 2-[2-Fluoro-4-[(1R*)-1-hydroxyethyl]phenyl]-N-[(3S)-9-fluoro-2-oxo-5-phenyl-1,3-dihydro-1,4-benzodiazepin-3-yl]pyrazolo[1,5-a]pyrimidine-3-carboxamide] | 7.8 | > 2500 | – | – | – | – | – | –
4 | O=C(N[C@H]1N=C(c2ccccc2)c2cccc(F)c2NC1=O)c1c(-c2cnn(CC(F)(F)F)c2)nn2cccnc12 [Example 3, N-[(3S)-9-fluoro-2-oxo-5-phenyl-1,3-dihydro-1,4-benzodiazepin-3-yl]-2-[1-(2,2,2-trifluoroethyl)pyrazol-4-yl]pyrazolo[1,5-a]pyrimidine-3-carboxamide] | – | – | 66 | > 25000 | 3.48 | 1.78 | > 2.33 | –
5 | O=C(N[C@H]1N=C(c2ccccc2)c2cccc(F)c2NC1=O)c1c(-c2cnn(C3CCOCC3)c2)nn2cccnc12 [Example 6, N-[(3S)-9-fluoro-2-oxo-5-phenyl-1,3-dihydro-1,4-benzodiazepin-3-yl]-2-[1-(oxan-4-yl)pyrazol-4-yl]pyrazolo[1,5-a]pyrimidine-3-carboxamide] | – | – | 49 | > 25000 | 1.42 | 2.07 | 4.32 | –
6 | CCn1cc(-c2nn3cccnc3c2C(=O)N[C@H]2N=C(c3ccccc3)c3cccc(F)c3NC2=O)cn1 [Example 13, 2-(1-Ethylpyrazol-4-yl)-N-[(3S)-9-fluoro-2-oxo-5-phenyl-1,3-dihydro-1,4-benzodiazepin-3-yl]pyrazolo[1,5-a]pyrimidine-3-carboxamide] | – | – | 58 | > 25000 | 7.52 | 6.82 | 8.93 | –
7 | CC(C)(O)c1ccc(-c2nn3cccnc3c2C(=O)N[C@H]2N=C(c3ccccc3)c3cccc(F)c3NC2=O)c(F)c1 [Example 19, 2-[2-Fluoro-4-(2-hydroxypropan-2-yl)phenyl]-N-[(3S)-9-fluoro-2-oxo-5-phenyl-1,3-dihydro-1,4-benzodiazepin-3-yl]pyrazolo[1,5-a]pyrimidine-3-carboxamide] | – | – | 8.5 | > 25000 | 2.43 | 1.22 | 2.82 | –
8 | CS(=O)(=O)c1ccc(F)c(-c2nn3cccnc3c2C(=O)N[C@H]2N=C(c3ccccc3)c3cccc(F)c3NC2=O)c1 [Example 26, 2-(2-Fluoro-5-methylsulfonylphenyl)-N-[(3S)-9-fluoro-2-oxo-5-phenyl-1,3-dihydro-1,4-benzodiazepin-3-yl]pyrazolo[1,5-a]pyrimidine-3-carboxamide] | – | – | 61 | > 25000 | – | – | – | –
9 | NC(=O)c1ccc(-c2nn3cccnc3c2C(=O)N[C@H]2N=C(c3ccccc3)c3cccc(F)c3NC2=O)c(F)c1 [Example 27, 2-(4-Carbamoyl-2-fluorophenyl)-N-[(3S)-9-fluoro-2-oxo-5-phenyl-1,3-dihydro-1,4-benzodiazepin-3-yl]pyrazolo[1,5-a]pyrimidine-3-carboxamide] | – | – | 49 | > 25000 | – | – | – | –
10 | NCC(=O)OCc1ccc(-c2nn3cccnc3c2C(=O)N[C@H]2N=C(c3ccccc3)c3ccccc3NC2=O)c(F)c1 [Example 29, 3-Fluoro-4-(3-{[(3S)-2-oxo-5-phenyl-1,3-dihydro-1,4-benzodiazepin-3-yl]carbamoyl}pyrazolo[1,5-a]pyrimidin-2-yl)phenyl]methyl aminoacetate hydrochloride] | 49 | > 25000 | – | – | – | – | – | –
11 | CC(C)[C@H](N)C(=O)OCc1ccc(-c2nn3cccnc3c2C(=O)N[C@H]2N=C(c3ccccc3)c3ccccc3NC2=O)c(F)c1 [Example 30, [3-Fluoro-4-(3-{[(3S)-2-oxo-5-phenyl-1,3-dihydro-1,4-benzodiazepin-3-yl]carbamoyl}pyrazolo[1,5-a]pyrimidin-2-yl)phenyl]methyl (2S)-2-amino-3-methylbutanoate hydrochloride] | – | – | 44 | > 25000 | – | – | – | –
